By Cmax is commonly meant the highest concentration seen after dosing. As a reminder, the bioavailability is dose-corrected exposure relative to a reference, in per cent. The term AUC(0-inf) denotes the area under the concentration-time curve extrapolated to infinity. Low values mean low exposure, high ones high exposure. As usually defined, the AUC(0-t) is exposure summed from dosing to a finite time, without extrapolation to infinity. For orientation: Tmax means the time from dosing to the highest level. What is called half-life is how long it takes for the measured level to halve. Lower therefore signals fast loss. One may read the clearance as the volume of plasma or blood freed of the substance per unit of time. A lower clearance goes with inefficient removal.

The results in this text go back to ChEMBL document CHEMBL5154841, “Optimization of NAMPT activators to achieve in vivo neuroprotective efficacy” (Eur J Med Chem, 2022).

The structures appear in SMILES notation.

Data set [1] in a line: Volume of distribution at steady state in CD-1 mouse at 1 mg/kg, iv measured after 24 hrs by LC-MS/MS analysis. Format: ADME, organism-based. Particulars: in vivo, read-out: Vdss.
The nature of data set [2]: Cmax in CD-1 mouse at 30 mg/kg, ip measured after 24 hrs by LC-MS/MS analysis. Format: ADME, organism-based. More on the design: time 24 hrs, dose 30 mg/kg, route ip. Particulars: in vivo.
Data set [3] is described as follows: Bioavailability in CD-1 mouse at 30 mg/kg, ip measured after 24 hrs by LC-MS/MS analysis. The format is ADME, organism-based. Particulars: in vivo.
The nature of data set [4]: Cmax in CD-1 mouse at 30 mg/kg, po measured after 24 hrs by LC-MS/MS analysis. The format is ADME, organism-based. More on the design: dose 30 mg/kg, time 24 hrs, route po. Particulars: in vivo.
A short description of data set [5]: AUCinfinity in CD-1 mouse at 1 mg/kg, iv measured after 24 hrs by LC-MS/MS analysis. More on the design: time 24 hrs, dose 1 mg/kg, route iv. The note with it: in vivo. Format: ADME, organism-based.
Data set [6] is described as follows: AUCinfinity in CD-1 mouse at 30 mg/kg, po measured after 24 hrs by LC-MS/MS analysis. The format is ADME, organism-based. Details: dose 30 mg/kg, time 24 hrs, route po. Particulars: in vivo.
Data set [7] is described as follows: AUClast in CD-1 mouse at 30 mg/kg, ip measured after 24 hrs by LC-MS/MS analysis. More on the design: dose 30 mg/kg, time 24 hrs, route ip. The format is ADME, organism-based. Particulars: in vivo.
Data set [8] can be described thus: Tmax in CD-1 mouse at 30 mg/kg, ip measured after 24 hrs by LC-MS/MS analysis. The format is ADME, organism-based. The note with it: in vivo.
The nature of data set [9]: Toxicity in C57BL/6J mouse assessed as body weight loss at 1 to 3 mg/kg, iv qd administered for 2 weeks and measured every day. The format is organism-based. Particulars: in vivo, 336 h, dose 1-3 mg/kg.
Data set [10] is described as follows: AUCinfinity in CD-1 mouse at 30 mg/kg, ip measured after 24 hrs by LC-MS/MS analysis. More on the design: dose 30 mg/kg, time 24 hrs, route ip. Format: ADME, organism-based. Particulars: in vivo.
Data set [11] is described as follows: Half life in CD-1 mouse at 30 mg/kg, ip measured after 24 hrs by LC-MS/MS analysis. Format: ADME, organism-based. Particulars: in vivo.
The nature of data set [12]: Half life in CD-1 mouse at 30 mg/kg, po measured after 24 hrs by LC-MS/MS analysis. Format: ADME, organism-based. The note with it: in vivo.
The next data set relates to U2OS. Description: Cytotoxicity against human U2OS cells assessed as effect on cell viability up to 10 uM measured after 72 hrs by Celltiter-glo luminescent cell viability assay. Format: toxicity, cell-based.
The nature of data set [13]: AUClast in CD-1 mouse at 30 mg/kg, po measured after 24 hrs by LC-MS/MS analysis. The format is ADME, organism-based. More on the design: dose 30 mg/kg, time 24 hrs, route po. The note with it: in vivo.
Another data set deals with T98G. Put plainly: Cytotoxicity against human T98G cells assessed as effect on cell viability up to 10 uM measured after 72 hrs by Celltiter-glo luminescent cell viability assay. The format is toxicity, cell-based. (ATP-based viability assays read luminescence as a measure of living cells.)
Data set [14] can be described thus: Clearance in CD-1 mouse at 1 mg/kg, iv measured after 24 hrs by LC-MS/MS analysis. The format is ADME, organism-based. The note with it: in vivo.
A short description of data set [15]: Tmax in CD-1 mouse at 30 mg/kg, po measured after 24 hrs by LC-MS/MS analysis. The note with it: in vivo. The format is ADME, organism-based.
A short description of data set [16]: AUClast in CD-1 mouse at 1 mg/kg, iv measured after 24 hrs by LC-MS/MS analysis. Format: ADME, organism-based. Details: dose 1 mg/kg, time 24 hrs, route iv. Particulars: in vivo.
In another data set the test system is SH-SY5Y. Put plainly: Cytotoxicity against human SH-SY5Y cells assessed as effect on cell viability up to 10 uM measured after 72 hrs by Celltiter-glo luminescent cell viability assay. Format: toxicity, cell-based.
Data set [17] can be described thus: Oral bioavailability in CD-1 mouse at 30 mg/kg measured after 24 hrs by LC-MS/MS analysis. Particulars: in vivo. Format: ADME, organism-based.
A further data set deals with HepG2. Put plainly: Cytotoxicity against human HepG2 cells assessed as effect on cell viability up to 10 uM measured after 72 hrs by Celltiter-glo luminescent cell viability assay. The format is toxicity, cell-based. Particulars: hepg2, 72 h.
Data set [18] can be described thus: Half life in CD-1 mouse at 1 mg/kg, iv measured after 24 hrs by LC-MS/MS analysis. The format is ADME, organism-based. The note with it: in vivo.
Data set [19] in a line: Cytoprotective activity against FK866- induced cell death in human U2OS cells assessed as increase in viable cells by measuring relative AUC at 10 uM incubated for […] by fluorometric analysis relative to NAT. Format: functional.

Take `CC(C)(C)c1cccc(C#N)c1OCC(=O)Nc1ccc(O)cc1`: the Vd in data set [1] was determined as 1.13 L/kg. The Cmax in [2] worked out at 1560 ng/mL; in data set [4], 188 ng/mL. Besides, the bioavailability amounted to 24.2% in data set [3] and 7.05% in data set [17]. In addition, the AUC(0-inf) in data set [5] came to 185 ng·h/mL; in data set [6], 395 ng·h/mL; in [10], 1340 ng·h/mL. For the same molecule, the values for the AUC(0-t) at 24 h in data set [7], in data set [13] and in data set [16] were 1330 ng·h/mL, 388 ng·h/mL and 183 ng·h/mL, respectively. The Tmax in data set [8] and in [15] was 15 min in each case. In addition, the Activity result (in data set [9]; with U2OS; with T98G; with SH-SY5Y; with HepG2) was “Non-Toxic” in each case. Moreover, the half-life in data set [11] is 63 min; in data set [12] it was 80.4 min; in data set [18] it was 10.8 min. The clearance in data set [14] was found to be 90.4 mL/min/kg.
Consider `CC(C)(C)c1cccc(F)c1OCC(=O)Nc1ccc(O)cc1`, for which the Activity in [19] is 235%.
Still for that read-out and setting: under `CC(C)(C)c1cc(Cl)c(F)cc1OCC(=O)Nc1ccc(O)cc1` stands 40%; under `CC(C)(C)c1cc(C#N)ccc1OCC(=O)Nc1ccc(O)cc1`, 126%.
As for `CC(C)(C)c1cc(Cl)ccc1OCC(=O)Nc1ccc(O)cc1`, the Activity in data set [19] stood at 32%.
For `CC(C)(C)c1cc(Br)ccc1OCC(=O)Nc1ccc(O)cc1`, the Activity in [19] amounted to 40%.
On the same count and under the same terms, the value for `CC(C)(C)c1ccc(F)cc1OCC(=O)Nc1ccc(O)cc1` was 171%.
In the case of `CC(C)(C)c1ccc(C#N)cc1OCC(=O)Nc1ccc(O)cc1`, the Activity in [19] was found to be 206%.
With `O=C(COc1ccccc1)Nc1ccc(O)cc1`, in data set [19], the Activity was 10%.
For `CC(C)(C)c1ccccc1OCC(=O)Nc1ccc(O)cc1`, in [1], the Vd was 1.3 L/kg. The figures for the Cmax in data set [2] and in [4] were 1520 ng/mL and 1620 ng/mL, respectively. Besides, the bioavailability in [3] was found to be 39.2%; in data set [17], 33.2%. Also, the AUC(0-inf) in data set [5] came out at 214 ng·h/mL; in data set [6], 2130 ng·h/mL; in [10], 2520 ng·h/mL. For the same molecule, the AUC(0-t) at 24 h in data set [7] was 2510 ng·h/mL; in [13], 2120 ng·h/mL; in data set [16], 212 ng·h/mL. Also, the time to peak (Tmax) amounted to 19.8 min in data set [8] and 15 min in [15]. In addition, the half-life was 180 min in data set [11], 178 min in data set [12] and 17.4 min in data set [18]. In data set [14], this molecule had a clearance of 78.8 mL/min/kg.
`COC(=O)c1ccc(OCC(=O)Nc2ccc(O)cc2)c(C(C)(C)C)c1`: in [19], the Activity is 133%.
Still for that read-out and setting: under `COc1ccc(OCC(=O)Nc2ccc(O)cc2)c(C(C)(C)C)c1` stands 138%; under `CC(C)(C)c1cc(O)ccc1OCC(=O)Nc1ccc(O)cc1`, 149%.
